# Results: US20140370594A1, “BIOLOGICAL CONVERSION OF BIOMASS-DERIVED SUGARS TO VALUE ADDED CHEMICALS” (WISCONSIN ALUMNI RESEARCH FOUNDATION, priority 2013, published 2014)
# What was measured:
# yeast = assay: Growth in minimal media supplemented with GVL, aerobic (FIGS. 9-13); type: cell-based; conditions: GVL concentrations of about 2% (wt/vol) and less, minimal medium
# Protocol: Yeast cultures were picked from single colonies and grown aerobically overnight in rich YPD broth (5 mL) (Sigma-Aldrich, St. Louis, Mo.) at 30° C. and 250 rpm. The yeast tested were Saccharomyces cerevisiae PE2 (Lallemand, Inc., Montreal, Quebec, Canada; see also Silva-Filho E A, Melo H F, Antunes D F, Santos S K B, Resende A M, Simões D A, Morais M A Jr, “Isolation by genetic and physiological characteristics of a fuel-ethanol fermentative Saccharomyces cerevisiae strain with potential for genetic manipulation,” J Ind Microbiol Biotechnol 2005, 32:481-486), Spathaspora passalidarum NN245 (ARS Culture Collection, NRRL Y-50740), Scheffersomyces stipitis 7124 (ATCC® 58376), and Scheffersomyces stipitis 6054 (ATCC® 58785).
# For the aerobic test media growth experiments, an overnight culture was used to inoculate test media (2 mL) to an OD600 of 0.01. The test cultures were then incubated for 40 hours under the same conditions. A final OD600 was measured after the 40-hour incubation period.
# Test media for E. coli and P. putida were made using MOPS minimal salts and either varying the weight percent of NaCl and GVL or varying dilutions of the aqueous product stream in water. […]
# E. coli and yeasts = assay: Sensitivity of growth to GVL versus NaCl concentration (FIGS. 9-13); type: cell-based; conditions: minimal media supplemented with GVL or NaCl, aerobic
# Description: (§1) Test media for E. coli and P. putida were made using MOPS minimal salts and either varying the weight percent of NaCl and GVL or varying dilutions of the aqueous product stream in water. L. casei test media were made using Chemically Defined Media for L. casei and yeast aerobic test media were made with Yeast Nitrogen Base (6.7 g/L; Difco, a wholly owned subsidiary of Becton Dickinson and Company, Franklin Lakes, N.J.). Yeast anaerobic media were made with Yeast Nitrogen Base and supplemented with Tween 80 (0.4 wt %) and amino acids (50 mg/L).
# The next step was to investigate the sensitivity of various microorganisms to salt concentration and GVL concentration. This was accomplished by measuring the growth of E. coli and yeasts in minimal media supplemented with known concentrations of GVL or NaCl under aerobic conditions. The results are depicted in FIGS. 9 through 13. FIG. 9 depicts the growth characteristics of E. coli TY05 in response to increasing concentrations of GVL. FIG. 10 depicts the growth characteristics of S. cerevisiae in response to increasing concentrations of GVL. FIG. 11 depicts the growth characteristics of S. cerevisiae PE2 in response to increasing concentrations of NaCl. FIG. 12 depicts the growth characteristics of S. passalidarum NN245 in response to increasing NaCl concentration. […]
# E. coli = assay: Growth in minimal media supplemented with GVL, aerobic (FIGS. 9-13); type: cell-based, Escherichia coli; conditions: GVL concentrations of about 2% (wt/vol) and less, minimal medium
# Protocol: Overnight cultures of E. coli were started from single colonies picked into LB (5 mL) and incubated at 37° C. […] with 250 rpm shaking. The overnight cultures were used to inoculate test media (2 mL) to an OD600 (optical density at 600 nm) of 0.01. These cultures were then incubated as described below. The final OD600 of each culture was measured after 24 hours of incubation.
# as §1
# The next step was to investigate the sensitivity of various microorganisms to salt concentration and GVL concentration. This was accomplished by measuring the growth of E. coli and yeasts in minimal media supplemented with known concentrations of GVL or NaCl under aerobic conditions. The results are depicted in FIGS. 9 through 13. FIG. 9 depicts the growth characteristics of E. coli TY05 in response to increasing concentrations of GVL. […]
compound,measurement,setting,value
"CC1CCC(=O)O1 (stereo not drawn) [GVL, gamma-valerolactone]",growth in the presence of GVL,yeast,very significant growth
same,impact of concentration on cell growth as compared to NaCl,E. coli and yeasts,stronger impact on cell growth
same,growth in the presence of GVL,E. coli,very significant growth
